From US20250189533A1, “BEAD-BASED ASSAY TO SCREEN FOR INHIBITOR PROTEIN-GLYCAN INTERACTIONS IN NEURODEGENERATION” (Rensselaer Polytechnic Institute, priority 2023, published 2025)

Columns and labels:
[1] = target: T1, tau (Homo sapiens, UniProt P10636); test: Heparin-induced tau aggregation; format: biochemical
T1 construct: recombinant full-length tau (2N4R, as 1-441); made in house; host or cells: E. coli BL21-DE3
From the text: (§1) Referring to FIG. 3B, in some embodiments, the screening compound 150 comprises 9-hydroxy-2-(2-piperidinylethyl) ellipticinium acetate or 6H-Pyrido [4, 9-hydroxy-5,11-dimethyl-2-[2-(1-piperidinyl)ethyl]-, acetate (A9) 300. […] A9 300 may comprise a chemical formula of C24H28N3O·C2H3O2 and a molecular weight of 434.0 g/mol. Additional analysis of A9 300 was done by performing a cell uptake assay utilizing H4 neuroglioma cells. […] In some embodiments, A9 300 is effective to disrupt tau-heparin interaction when present in a higher concentration than the concentration of tau. In some embodiments, A9 300 is effective when present in about a 100-fold molar excess relative to the tau-heparin complex.

[2] = target: T2, tau-HS interaction (heparin) (Homo sapiens, UniProt P10636); test: NMR probing of the tau-A9 interface; format: binding
T2 construct: recombinant full-length tau (2N4R, as 1-441); made in house; host or cells: E. coli BL21-DE3
T2 sequence (P10636 1-441 isoform P10636-8): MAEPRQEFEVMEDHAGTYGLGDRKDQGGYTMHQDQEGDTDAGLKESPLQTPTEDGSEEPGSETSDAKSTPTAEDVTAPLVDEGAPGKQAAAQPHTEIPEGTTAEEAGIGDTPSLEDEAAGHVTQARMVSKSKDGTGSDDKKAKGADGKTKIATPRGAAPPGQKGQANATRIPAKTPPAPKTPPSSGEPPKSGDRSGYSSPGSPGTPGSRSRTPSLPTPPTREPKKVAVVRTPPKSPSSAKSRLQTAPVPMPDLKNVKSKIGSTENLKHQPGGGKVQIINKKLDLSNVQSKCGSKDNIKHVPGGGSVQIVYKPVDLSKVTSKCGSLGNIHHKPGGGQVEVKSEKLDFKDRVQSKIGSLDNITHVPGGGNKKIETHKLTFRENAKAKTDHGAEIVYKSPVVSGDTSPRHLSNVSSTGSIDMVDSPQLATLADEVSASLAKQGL

[3] = target: T3, His-tagged tau / biotinylated heparin interaction (Homo sapiens, UniProt P10636); test: Bead-based ALPHA assay screening for inhibitors of tau-heparin interaction; format: binding
T3 construct: recombinant full-length tau (2N4R, as 1-441); made in house; host or cells: E. coli BL21-DE3
T3 sequence (P10636 1-441 isoform P10636-8): as above
From the text: In some embodiments, the detecting portion 161 is configured to measure a fluorescent emission 164 when the at least one donor bead 110 and the at least one acceptor bead 120 are brought in proximity of one another. In some embodiments, the emitting portion 163 configured to emit a beam of light 162 at a specific wavelength onto the at least one donor bead 110. In some embodiments, the at least one donor bead 110 becomes excited at the specific wavelength, which results in a light emission by the at least one acceptor bead 120. […] In some embodiments, the ability and effectiveness of the screening molecule 150 to inhibit protein-glycan interactions is determined based on the strength of the emission 164, where inhibitors decrease the strength of the emission 164. […] In some embodiments, the user interface outputs information related to the emission 164 detected by the detecting portion 161.
At 214, the results are determined, meaning that whether or not the screening compound disrupts interactions at the protein-glycan interface is determined. In some embodiments, in the case of the screening molecule 150 being determined to disrupt interactions at the protein-glycan interface, the relative strength of the disruption may also be determined. […]

[4] = system: tau uptake in H4 neuroglioma cells; test: Cell uptake assay utilizing H4 neuroglioma cells; format: cell-based
From the text: as §1

T1 sequence (P10636 1-441 isoform P10636-8): as above

detected fluorescent signal in screen of NCI diversity Set VI ([3]; 0.1 μM His-tau, 0.1 μM biotinylated heparin, 1 h room temperature, excitation 680 nm, emission 620 nm, lower signal = stronger inhibition): lowest detected fluorescent signal
protein-glycan inhibition, dose-dependent follow-up, ranking among the six hits ([3]; varying compound concentrations): greatest protein-glycan inhibition
Structure (SMILES): CC(=O)[O-].Cc1c2cc[n+](CCN3CCCCC3)cc2c(C)c2c1[nH]c1ccc(O)cc12 [A9, 9-hydroxy-2-(2-piperidinylethyl) ellipticinium acetate]
inhibition of heparin-induced tau aggregation [1]: inhibit heparin-induced tau aggregation in a dose-dependent manner
mechanism of disruption of tau-HS interaction ([2]; NMR): disrupt the tau-HS interaction by occupying the glycan
region of compound that binds heparin ([2]; further analysis): aromatic region binds to heparin instead of its aliphatic carbons
inhibition of tau uptake [4]: inhibited tau uptake in a dose-dependent manner
